Molecular target: T1, APOL1 G1 (Homo sapiens, UniProt O14791, I384M/S342G)
T1 sequence (O14791 28-398 S342G/I384M): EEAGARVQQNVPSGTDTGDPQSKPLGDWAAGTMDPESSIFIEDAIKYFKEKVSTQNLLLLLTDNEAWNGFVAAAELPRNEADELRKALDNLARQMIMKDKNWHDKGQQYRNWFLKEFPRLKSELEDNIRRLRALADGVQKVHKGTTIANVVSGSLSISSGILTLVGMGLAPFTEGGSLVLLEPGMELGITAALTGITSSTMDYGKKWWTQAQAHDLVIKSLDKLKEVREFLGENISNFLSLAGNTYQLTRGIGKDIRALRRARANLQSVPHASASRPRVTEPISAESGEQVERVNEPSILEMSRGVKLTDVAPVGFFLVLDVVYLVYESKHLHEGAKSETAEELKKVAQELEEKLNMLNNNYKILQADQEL
Assay: MultiTox-Fluor Multiplex Cytotoxicity Assay, tet-inducible APOL1 G1 T-REx-HEK293 cells
Type: cell-based
Design: expressed in transfected cells; host or cells: T-REx HEK293, clone G1 DC3.25 (pAAVS1-Puro-APOL1 G1)
Settings: for IC90: HEK293, Multi-Tox Assay, APOL1 variant (G0/G1/G2) of the HEK293 cells not given, read-out: Multi-Tox Assay IC90; for Multi-Tox Assay Max Activity (%): APOL1 variant not given
Summary of the method: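 T-REx-HEK293 cells carrying tet-inducible APOL1 G1 induced with 50 ng/mL tet alongside compound (top 10 µM, 10-point 3-fold, duplicate) for 24 h at 37 °C. MultiTox-Fluor dead/live protease fluorescence ratio read after 30 min; normalized to no-tet (100% viability) and tet-treated (0%) controls, then curve-fitted.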

SMILES: COc1cccc(Cn2cc([C@@H]3C[C@]4(C[C@H](C)N3)OC[C@@H](O)c3cc(Cl)sc34)nn2)c1 [Compound 278]
- IC90: 50 to 500 nM
- Multi-Tox Assay Max Activity (%): 100.0%

SMILES: C[C@H]1C[C@@]2(C[C@@H](c3cn(Cc4cccc(O)c4)nn3)N1)OC[C@@H](O)c1cc(Cl)sc12 [Compound 279]
- IC90: 50 to 500 nM
- Multi-Tox Assay Max Activity (%): 97.0%

SMILES: C[C@H]1C[C@@]2(C[C@@H](c3cn(Cc4cccnn4)nn3)N1)OC[C@@H](O)c1cc(Cl)sc12 [Compound 280]
- IC90: 50 to 500 nM

SMILES: C[C@H]1C[C@@]2(C[C@@H](c3cn(CC(O)c4ccccc4)nn3)N1)OC[C@@H](O)c1cc(Cl)sc12 (stereo partly drawn) [Compound 281]
- IC90: 50 to 500 nM

SMILES: COCCn1cc([C@@H]2C[C@]3(C[C@H](C)N2)OC[C@@H](O)c2cc(Cl)sc23)nn1 [Compound 282]
- IC90: 50 to 500 nM

SMILES: C[C@H]1C[C@@]2(C[C@@H](c3cn(CC(F)F)nn3)N1)OC[C@@H](O)c1cc(Cl)sc12 [Compound 283]
- IC90: 50 to 500 nM
- Multi-Tox Assay Max Activity (%): 101.0%

SMILES: CCC(O)Cn1cc([C@@H]2C[C@]3(C[C@H](C)N2)OC[C@@H](O)c2cc(Cl)sc23)nn1 (stereo partly drawn) [Compound 284]
- IC90: 50 to 500 nM
- Multi-Tox Assay Max Activity (%): 101.0%

SMILES: Cc1c(Cn2cc([C@@H]3C[C@]4(C[C@H](C)N3)OC[C@@H](O)c3cc(Cl)sc34)nn2)cnn1C [Compound 285]
- IC90: 50 to 500 nM
- Multi-Tox Assay Max Activity (%): 98.0%

SMILES: C[C@H]1C[C@@]2(C[C@@H](c3cn(CCC#N)nn3)N1)OC[C@@H](O)c1cc(Cl)sc12 [Compound 286]
- IC90: 50 to 500 nM
- Multi-Tox Assay Max Activity (%): 98.0%

SMILES: CC(C)N1CC(Cn2cc([C@@H]3C[C@]4(C[C@H](C)N3)OC[C@@H](O)c3cc(Cl)sc34)nn2)CC1=O (stereo partly drawn) [Compound 287]
- IC90: 50 to 500 nM
- Multi-Tox Assay Max Activity (%): 96.0%

SMILES: C[C@H]1C[C@@]2(C[C@@H](c3cn(CCC(N)=O)nn3)N1)OC[C@@H](O)c1cc(Cl)sc12 [Compound 288]
- IC90: 50 to 500 nM
- Multi-Tox Assay Max Activity (%): 97.0%

SMILES: C[C@H]1C[C@@]2(C[C@@H](c3cn(CC4(F)CCOCC4)nn3)N1)OC[C@@H](O)c1cc(Cl)sc12 [Compound 289]
- IC90: > 500 nM
- Multi-Tox Assay Max Activity (%): 83.0%

SMILES: CCn1cc(Cn2cc([C@@H]3C[C@]4(C[C@H](C)N3)OC[C@@H](O)c3cc(Cl)sc34)nn2)cn1 [Compound 290]
- IC90: 50 to 500 nM

SMILES: C[C@H]1C[C@@]2(C[C@@H](c3cn(Cc4cocn4)nn3)N1)OC[C@@H](O)c1cc(Cl)sc12 [Compound 291]
- IC90: 50 to 500 nM
- Multi-Tox Assay Max Activity (%): 100.0%

SMILES: C[C@H]1C[C@@]2(C[C@@H](c3cn(Cc4ccccn4)nn3)N1)OC[C@@H](O)c1cc(Cl)sc12 [Compound 292]
- IC90: 50 to 500 nM

SMILES: COc1cc(F)cc(Cn2cc([C@@H]3C[C@]4(C[C@H](C)N3)OC[C@@H](O)c3cc(Cl)sc34)nn2)c1 [Compound 293]
- IC90: < 50 nM
- Multi-Tox Assay Max Activity (%): 100.0%

SMILES: Cc1ccc(Cn2cc([C@@H]3C[C@]4(C[C@H](C)N3)OC[C@@H](O)c3cc(Cl)sc34)nn2)nc1 [Compound 294]
- IC90: 50 to 500 nM
- Multi-Tox Assay Max Activity (%): 100.0%

SMILES: COc1ccc(Cn2cc([C@@H]3C[C@]4(C[C@H](C)N3)OC[C@@H](O)c3cc(Cl)sc34)nn2)cc1 [Compound 295]
- IC90: 50 to 500 nM

SMILES: Cc1cc(Cn2cc([C@@H]3C[C@]4(C[C@H](C)N3)OC[C@@H](O)c3cc(Cl)sc34)nn2)ccn1 [Compound 296]
- IC90: 50 to 500 nM

SMILES: Cc1nc(Cn2cc([C@@H]3C[C@]4(C[C@H](C)N3)OC[C@@H](O)c3cc(Cl)sc34)nn2)oc1C [Compound 297]
- IC90: 50 to 500 nM

SMILES: C[C@H]1C[C@@]2(C[C@@H](c3cn(Cc4ncc(F)cc4F)nn3)N1)OC[C@@H](O)c1cc(Cl)sc12 [Compound 298]
- IC90: > 500 nM
- Multi-Tox Assay Max Activity (%): 95.0%

SMILES: C[C@H]1C[C@@]2(C[C@@H](c3cn(CCOc4ccccc4F)nn3)N1)OC[C@@H](O)c1cc(Cl)sc12 [Compound 301]
- IC90: < 50 nM

SMILES: C[C@H]1C[C@@]2(C[C@@H](c3cn(Cc4ccc(O)cc4)nn3)N1)OCC(F)(F)c1cc(Cl)sc12 [Compound 302]
- IC90: 50 to 500 nM
- Multi-Tox Assay Max Activity (%): 94.0%

SMILES: Cc1cccc(OCC(O)Cn2cc([C@@H]3C[C@]4(C[C@H](C)N3)OCC(F)(F)c3cc(Cl)sc34)nn2)c1 (stereo partly drawn) [Compound 303]
- IC90: 50 to 500 nM

SMILES: Cc1ccccc1C(O)Cn1cc([C@@H]2C[C@]3(C[C@H](C)N2)OCC(F)(F)c2cc(Cl)sc23)nn1 (stereo partly drawn) [Compound 304]
- IC90: 50 to 500 nM

SMILES: C[C@H]1C[C@@]2(C[C@@H](c3cn(CCc4ccncn4)nn3)N1)OCC(F)(F)c1cc(Cl)sc12 [Compound 305]
- IC90: 50 to 500 nM
- Multi-Tox Assay Max Activity (%): 100.0%

SMILES: CC(CO)CCn1cc([C@@H]2C[C@]3(C[C@H](C)N2)OCC(F)(F)c2cc(Cl)sc23)nn1 (stereo partly drawn) [Compound 306]
- IC90: > 500 nM

SMILES: C[C@H]1C[C@@]2(C[C@@H](c3cn(CC4CCS(=O)(=O)C4)nn3)N1)OCC(F)(F)c1cc(Cl)sc12 (stereo partly drawn) [Compound 307]
- IC90: 50 to 500 nM

SMILES: C[C@H]1C[C@@]2(C[C@@H](c3cn(Cc4ccc(OC5CCOCC5)cc4)nn3)N1)OCC(F)(F)c1cc(Cl)sc12 [Compound 308]
- IC90: > 500 nM
- Multi-Tox Assay Max Activity (%): 95.0%

SMILES: C[C@H]1C[C@@]2(C[C@@H](c3cn(CC4CCOCC4)nn3)N1)OCC(F)(F)c1cc(Cl)sc12 [Compound 309]
- IC90: 50 to 500 nM
- Multi-Tox Assay Max Activity (%): 97.0%

SMILES: C[C@H]1C[C@@]2(C[C@@H](c3cn(Cc4cccc5c4OCCO5)nn3)N1)OCC(F)(F)c1cc(Cl)sc12 [Compound 310]
- IC90: > 500 nM
- Multi-Tox Assay Max Activity (%): 94.0%

SMILES: C[C@H]1C[C@@]2(C[C@@H](c3cn(CC4CCOC4)nn3)N1)OCC(F)(F)c1cc(Cl)sc12 (stereo partly drawn) [Compound 311]
- IC90: 50 to 500 nM

SMILES: C[C@H]1C[C@@]2(C[C@@H](c3cn(Cc4cccc(CO)c4)nn3)N1)OCC(F)(F)c1cc(Cl)sc12 [Compound 313]
- IC90: 50 to 500 nM
- Multi-Tox Assay Max Activity (%): 98.0%

SMILES: C[C@H]1C[C@@]2(C[C@@H](c3cn(CCC4CCCOC4)nn3)N1)OCC(F)(F)c1cc(Cl)sc12 (stereo partly drawn) [Compound 314]
- IC90: < 50 nM

SMILES: Cc1ccnn1CCn1cc([C@@H]2C[C@]3(C[C@H](C)N2)OCC(F)(F)c2cc(Cl)sc23)nn1 [Compound 315]
- IC90: 50 to 500 nM
- Multi-Tox Assay Max Activity (%): 98.0%

SMILES: C[C@H]1C[C@@]2(C[C@@H](c3cn(Cc4ccc(O)nc4)nn3)N1)OCC(F)(F)c1cc(Cl)sc12 [Compound 316]
- IC90: > 500 nM
- Multi-Tox Assay Max Activity (%): 95.0%

SMILES: C[C@H]1C[C@@]2(C[C@@H](c3cn(Cc4cnccn4)nn3)N1)OCC(F)(F)c1cc(Cl)sc12 [Compound 317]
- IC90: 50 to 500 nM
- Multi-Tox Assay Max Activity (%): 98.0%

SMILES: Cc1ncc(Cn2cc([C@@H]3C[C@]4(C[C@H](C)N3)OCC(F)(F)c3cc(Cl)sc34)nn2)cn1 [Compound 318]
- IC90: < 50 nM

SMILES: COc1cccc(Cn2cc([C@@H]3C[C@]4(C[C@H](C)N3)OCC(F)(F)c3cc(Cl)sc34)nn2)c1 [Compound 319]
- IC90: 50 to 500 nM
- Multi-Tox Assay Max Activity (%): 95.0%

SMILES: C[C@H]1C[C@@]2(C[C@@H](c3cn(Cc4cccc(O)c4)nn3)N1)OCC(F)(F)c1cc(Cl)sc12 [Compound 320]
- IC90: > 500 nM
- Multi-Tox Assay Max Activity (%): 95.0%

SMILES: C[C@H]1C[C@@]2(C[C@@H](c3cn(Cc4cccnn4)nn3)N1)OCC(F)(F)c1cc(Cl)sc12 [Compound 321]
- IC90: 50 to 500 nM

SMILES: C[C@H]1C[C@@]2(C[C@@H](c3cn(CC(O)c4ccccc4)nn3)N1)OCC(F)(F)c1cc(Cl)sc12 (stereo partly drawn) [Compound 322]
- IC90: 50 to 500 nM
- Multi-Tox Assay Max Activity (%): 97.0%

SMILES: COCCn1cc([C@@H]2C[C@]3(C[C@H](C)N2)OCC(F)(F)c2cc(Cl)sc23)nn1 [Compound 323]
- IC90: 50 to 500 nM
- Multi-Tox Assay Max Activity (%): 100.0%

SMILES: C[C@H]1C[C@@]2(C[C@@H](c3cn(CC(F)F)nn3)N1)OCC(F)(F)c1cc(Cl)sc12 [Compound 324]
- IC90: > 500 nM
- Multi-Tox Assay Max Activity (%): 96.0%

SMILES: CCC(O)Cn1cc([C@@H]2C[C@]3(C[C@H](C)N2)OCC(F)(F)c2cc(Cl)sc23)nn1 (stereo partly drawn) [Compound 325]
- IC90: 50 to 500 nM
- Multi-Tox Assay Max Activity (%): 98.0%

SMILES: Cc1c(Cn2cc([C@@H]3C[C@]4(C[C@H](C)N3)OCC(F)(F)c3cc(Cl)sc34)nn2)cnn1C [Compound 326]
- IC90: 50 to 500 nM
- Multi-Tox Assay Max Activity (%): 97.0%

SMILES: CC(C)N1CC(Cn2cc([C@@H]3C[C@]4(C[C@H](C)N3)OCC(F)(F)c3cc(Cl)sc34)nn2)CC1=O (stereo partly drawn) [Compound 327]
- IC90: 50 to 500 nM
- Multi-Tox Assay Max Activity (%): 98.0%

SMILES: C[C@H]1C[C@@]2(C[C@@H](c3cn(CCC(N)=O)nn3)N1)OCC(F)(F)c1cc(Cl)sc12 [Compound 328]
- IC90: 50 to 500 nM
- Multi-Tox Assay Max Activity (%): 100.0%

SMILES: C[C@H]1C[C@@]2(C[C@@H](c3cn(CC4(F)CCOCC4)nn3)N1)OCC(F)(F)c1cc(Cl)sc12 [Compound 329]
- IC90: > 500 nM
- Multi-Tox Assay Max Activity (%): 90.0%

SMILES: CCn1cc(Cn2cc([C@@H]3C[C@]4(C[C@H](C)N3)OCC(F)(F)c3cc(Cl)sc34)nn2)cn1 [Compound 330]
- IC90: 50 to 500 nM

SMILES: C[C@H]1C[C@@]2(C[C@@H](c3cn(Cc4cocn4)nn3)N1)OCC(F)(F)c1cc(Cl)sc12 [Compound 331]
- IC90: 50 to 500 nM
- Multi-Tox Assay Max Activity (%): 98.0%
